Measurements from patent US7202280B2, “Methods for the treatment and prevention of pancreatitis and for induction of liver regeneration” (priority 2002, dated 2007).

How the values were obtained:
SSAT = assay: Hepatic, pancreatic and renal SSAT activity in syngenic and metallothionein-SSAT mice after analogue; type: in vivo, mouse; details: 24 h before sacrifice
Procedure: (§1) α-methylspermidine, Bis-α-methylspermine and α-methylspermine were administered in saline. […] The data are expressed as means ±S.D. For statistical analysis, the two-tailed Student's t test was used.

[1] = test system: syngenic and metallothionein-SSAT mice; assay: Hepatic, pancreatic and renal polyamine concentration in syngenic and metallothionein-SSAT mice after analogue; type: in vivo, mouse; details: 24 h before sacrifice
Procedure: as §1

[2] = Tg (transgenic) mice, 12.5 mg/kg
[3] = Tg (transgenic) mice, 37.5 mg/kg

## CC(N)CCNCCCCNCCCN (stereo not drawn) [α-methylspermine, 1-methylspermine]
SSAT; Sg (syngenic) mice, 12.5 mg/kg
  SSAT activity, Kidney: 3.65 ± 2.39 ^+ pmoles/10 min/ tissue wet weight
  SSAT activity, Liver: 0.47 pmoles/10 min/ tissue wet weight
  SSAT activity, Pancreas: 2.03 pmoles/10 min/ tissue wet weight
SSAT; Sg (syngenic) mice, 25 mg/kg
  SSAT activity, Kidney: 2.76 ± 2.52 pmoles/10 min/ tissue wet weight
  SSAT activity, Liver: 0.26 pmoles/10 min/ tissue wet weight
  SSAT activity, Pancreas: 1.72 pmoles/10 min/ tissue wet weight
SSAT; Sg (syngenic) mice, 37.5 mg/kg
  SSAT activity, Kidney: 4.29 ± 2.38 pmoles/10 min/ tissue wet weight
  SSAT activity, Liver: 0.75 pmoles/10 min/ tissue wet weight
  SSAT activity, Pancreas: 1.46 pmoles/10 min/ tissue wet weight
SSAT; Sg (syngenic) mice, 50 mg/kg
  SSAT activity, Kidney: 3.20 ± 2.40 pmoles/10 min/ tissue wet weight
  SSAT activity, Liver: 0.52 pmoles/10 min/ tissue wet weight
  SSAT activity, Pancreas: 2.23 pmoles/10 min/ tissue wet weight
SSAT; [2]
  SSAT activity, Kidney: 5.86 ± 1.91 pmoles/10 min/ tissue wet weight
  SSAT activity, Liver: 21.19 pmoles/10 min/ tissue wet weight
  SSAT activity, Pancreas: 609.10 pmoles/10 min/ tissue wet weight
SSAT; Tg (transgenic) mice, 25 mg/kg
  SSAT activity, Kidney: 3.06 ± 2.23 pmoles/10 min/ tissue wet weight
  SSAT activity, Liver: 30.81 pmoles/10 min/ tissue wet weight
  SSAT activity, Pancreas: 561.36 pmoles/10 min/ tissue wet weight
SSAT; [3]
  SSAT activity, Kidney: 3.47 ± 2.52 pmoles/10 min/ tissue wet weight
  SSAT activity, Liver: 24.88 pmoles/10 min/ tissue wet weight
  SSAT activity, Pancreas: 543.84 pmoles/10 min/ tissue wet weight
SSAT; Tg (transgenic) mice, 50 mg/kg
  SSAT activity, Kidney: 2.95 ± 1.82 pmoles/10 min/ tissue wet weight
  SSAT activity, Liver: 39.44 pmoles/10 min/ tissue wet weight
  SSAT activity, Pancreas: 707.60 pmoles/10 min/ tissue wet weight
[1]; Sg (syngenic) mice, 12.5 mg/kg
  hepatic concentration, α-Methylspermine: 470.60 pmoles/mg tissue wet weight
  hepatic polyamine concentration, N^1-Acetylspermidine: 37.49 pmoles/mg tissue wet weight
  hepatic polyamine concentration, Putrescine: 39.46 pmoles/mg tissue wet weight
  hepatic polyamine concentration, Spermidine: 669.94 pmoles/mg tissue wet weight
  hepatic polyamine concentration, Spermine: 568.21 pmoles/mg tissue wet weight
  pancreatic polyamine concentration, N^1-Acetylspermidine: 56.32 pmoles/mg tissue wet weight
  pancreatic polyamine concentration, N^8-Acetylspermidine: 17.17 pmoles/mg tissue wet weight
  pancreatic polyamine concentration, Putrescine: 80.74 pmoles/mg tissue wet weight
  pancreatic polyamine concentration, Spermidine: 7952.04 pmoles/mg tissue wet weight
  pancreatic polyamine concentration, Spermine: 1048.44 pmoles/mg tissue wet weight
  renal concentration, α-Methylspermine: 197.48 ± 6.80 pmoles/mg tissue wet weight
  renal polyamine concentration, N^1-Acetylspermidine: 46.16 pmoles/mg tissue wet weight
  renal polyamine concentration, N^8-Acetylspermidine: 24.91 pmoles/mg tissue wet weight
  renal polyamine concentration, Putrescine: 48.17 pmoles/mg tissue wet weight
  renal polyamine concentration, Spermidine: 312.55 pmoles/mg tissue wet weight
  renal polyamine concentration, Spermine: 247.41 pmoles/mg tissue wet weight
[1]; Sg (syngenic) mice, 25 mg/kg
  hepatic concentration, α-Methylspermine: 420.20 pmoles/mg tissue wet weight
  hepatic polyamine concentration, Putrescine: 44.18 pmoles/mg tissue wet weight
  hepatic polyamine concentration, Spermidine: 1015.51 pmoles/mg tissue wet weight
  hepatic polyamine concentration, Spermine: 411.06 pmoles/mg tissue wet weight
  pancreatic polyamine concentration, N^1-Acetylspermidine: 19.45 pmoles/mg tissue wet weight
  pancreatic polyamine concentration, N^8-Acetylspermidine: 24.47 pmoles/mg tissue wet weight
  pancreatic polyamine concentration, Putrescine: 50.98 pmoles/mg tissue wet weight
  pancreatic polyamine concentration, Spermidine: 5421.66 pmoles/mg tissue wet weight
  pancreatic polyamine concentration, Spermine: 729.10 pmoles/mg tissue wet weight
  renal concentration, α-Methylspermine: 228.87 ± 6.44 pmoles/mg tissue wet weight
  renal polyamine concentration, N^1-Acetylspermidine: 59.48 pmoles/mg tissue wet weight
  renal polyamine concentration, N^8-Acetylspermidine: 25.80 pmoles/mg tissue wet weight
  renal polyamine concentration, Putrescine: 122.64 pmoles/mg tissue wet weight
  renal polyamine concentration, Spermidine: 215.41 pmoles/mg tissue wet weight
  renal polyamine concentration, Spermine: 272.18 pmoles/mg tissue wet weight
[1]; Sg (syngenic) mice, 37.5 mg/kg
  hepatic concentration, α-Methylspermine: 510.72 pmoles/mg tissue wet weight
  hepatic polyamine concentration, Spermidine: 830.89 pmoles/mg tissue wet weight
  hepatic polyamine concentration, Spermine: 485.75 pmoles/mg tissue wet weight
  pancreatic polyamine concentration, Putrescine: 36.15 pmoles/mg tissue wet weight
  pancreatic polyamine concentration, Spermidine: 5806.20 pmoles/mg tissue wet weight
  pancreatic polyamine concentration, Spermine: 804.72 pmoles/mg tissue wet weight
  renal concentration, α-Methylspermine: 245.67 ± 38.85 pmoles/mg tissue wet weight
  renal polyamine concentration, N^1-Acetylspermidine: 30.29 pmoles/mg tissue wet weight
  renal polyamine concentration, N^8-Acetylspermidine: 24.30 pmoles/mg tissue wet weight
  renal polyamine concentration, Putrescine: 59.01 pmoles/mg tissue wet weight
  renal polyamine concentration, Spermidine: 244.82 pmoles/mg tissue wet weight
  renal polyamine concentration, Spermine: 207.72 pmoles/mg tissue wet weight
[1]; Sg (syngenic) mice, 50 mg/kg
  hepatic concentration, α-Methylspermine: 521.41 pmoles/mg tissue wet weight
  hepatic polyamine concentration, N^1-Acetylspermidine: 45.74 pmoles/mg tissue wet weight
  hepatic polyamine concentration, N^8-Acetylspermidine: 15.33 pmoles/mg tissue wet weight
  hepatic polyamine concentration, Putrescine: 22.71 pmoles/mg tissue wet weight
  hepatic polyamine concentration, Spermidine: 780.24 pmoles/mg tissue wet weight
  hepatic polyamine concentration, Spermine: 419.39 pmoles/mg tissue wet weight
  pancreatic polyamine concentration, N^8-Acetylspermidine: 19.89 pmoles/mg tissue wet weight
  pancreatic polyamine concentration, Putrescine: 107.70 pmoles/mg tissue wet weight
  pancreatic polyamine concentration, Spermidine: 6839.92 pmoles/mg tissue wet weight
  pancreatic polyamine concentration, Spermine: 811.45 pmoles/mg tissue wet weight
  renal concentration, α-Methylspermine: 263.69 ± 49.92 pmoles/mg tissue wet weight
  renal polyamine concentration, N^1-Acetylspermidine: 48.23 pmoles/mg tissue wet weight
  renal polyamine concentration, N^8-Acetylspermidine: 21.09 pmoles/mg tissue wet weight
  renal polyamine concentration, Putrescine: 160.04 pmoles/mg tissue wet weight
  renal polyamine concentration, Spermidine: 193.19 pmoles/mg tissue wet weight
  renal polyamine concentration, Spermine: 258.42 pmoles/mg tissue wet weight
[1]; [2]
  hepatic concentration, α-Methylspermine: 138.89 pmoles/mg tissue wet weight
  hepatic polyamine concentration, N^1-Acetylspermidine: 242.81 pmoles/mg tissue wet weight
  hepatic polyamine concentration, Putrescine: 857.28 pmoles/mg tissue wet weight
  hepatic polyamine concentration, Spermidine: 717.42 pmoles/mg tissue wet weight
  hepatic polyamine concentration, Spermine: 62.74 pmoles/mg tissue wet weight
  pancreatic concentration, α-Methylspermine: 132.85 ± 26.34 pmoles/mg tissue wet weight
  pancreatic polyamine concentration, N^1-Acetylspermidine: 154.67 pmoles/mg tissue wet weight
  pancreatic polyamine concentration, Putrescine: 5691.31 pmoles/mg tissue wet weight
  pancreatic polyamine concentration, Spermidine: 2304.42 pmoles/mg tissue wet weight
  pancreatic polyamine concentration, Spermine: 42.35 pmoles/mg tissue wet weight
  renal concentration, α-Methylspermine: 198.34 ± 10.11 pmoles/mg tissue wet weight
  renal polyamine concentration, N^1-Acetylspermidine: 38.55 pmoles/mg tissue wet weight
  renal polyamine concentration, N^8-Acetylspermidine: 24.62 pmoles/mg tissue wet weight
  renal polyamine concentration, Putrescine: 58.16 pmoles/mg tissue wet weight
  renal polyamine concentration, Spermidine: 247.60 pmoles/mg tissue wet weight
  renal polyamine concentration, Spermine: 208.03 pmoles/mg tissue wet weight
[1]; Tg (transgenic) mice, 25 mg/kg
  hepatic concentration, α-Methylspermidine: 197.89 ± 47.51 pmoles/mg tissue wet weight
  hepatic concentration, α-Methylspermine: 145.99 pmoles/mg tissue wet weight
  hepatic polyamine concentration, N^1-Acetylspermidine: 317.98 pmoles/mg tissue wet weight
  hepatic polyamine concentration, N^8-Acetylspermidine: 36.49 pmoles/mg tissue wet weight
  hepatic polyamine concentration, Putrescine: 872.47 pmoles/mg tissue wet weight
  hepatic polyamine concentration, Spermidine: 349.61 pmoles/mg tissue wet weight
  hepatic polyamine concentration, Spermine: 49.71 pmoles/mg tissue wet weight
  pancreatic concentration, α-Methylspermine: 130.62 ± 33.84 pmoles/mg tissue wet weight
  pancreatic polyamine concentration, N^1-Acetylspermidine: 327.88 pmoles/mg tissue wet weight
  pancreatic polyamine concentration, Putrescine: 5798.24 pmoles/mg tissue wet weight
  pancreatic polyamine concentration, Spermidine: 2449.50 pmoles/mg tissue wet weight
  pancreatic polyamine concentration, Spermine: 37.63 pmoles/mg tissue wet weight
  renal concentration, α-Methylspermine: 227.76 ± 11.79 pmoles/mg tissue wet weight
  renal polyamine concentration, N^1-Acetylspermidine: 42.95 pmoles/mg tissue wet weight
  renal polyamine concentration, N^8-Acetylspermidine: 25.16 pmoles/mg tissue wet weight
  renal polyamine concentration, Putrescine: 68.39 pmoles/mg tissue wet weight
  renal polyamine concentration, Spermidine: 156.66 pmoles/mg tissue wet weight
  renal polyamine concentration, Spermine: 209.57 pmoles/mg tissue wet weight
[1]; [3]
  hepatic concentration, α-Methylspermidine: 274.07 ± 18.43 pmoles/mg tissue wet weight
  hepatic concentration, α-Methylspermine: 203.75 pmoles/mg tissue wet weight
  hepatic polyamine concentration, N^1-Acetylspermidine: 180.48 pmoles/mg tissue wet weight
  hepatic polyamine concentration, N^8-Acetylspermidine: 14.15 pmoles/mg tissue wet weight
  hepatic polyamine concentration, Putrescine: 774.33 pmoles/mg tissue wet weight
  hepatic polyamine concentration, Spermidine: 305.70 pmoles/mg tissue wet weight
  hepatic polyamine concentration, Spermine: 47.47 pmoles/mg tissue wet weight
  pancreatic concentration, α-Methylspermine: 105.85 ± 91.76 pmoles/mg tissue wet weight
  pancreatic polyamine concentration, N^1-Acetylspermidine: 176.49 pmoles/mg tissue wet weight
  pancreatic polyamine concentration, Putrescine: 7426.10 pmoles/mg tissue wet weight
  pancreatic polyamine concentration, Spermidine: 2106.09 pmoles/mg tissue wet weight
  pancreatic polyamine concentration, Spermine: 51.89 pmoles/mg tissue wet weight
  renal concentration, α-Methylspermine: 224.06 ± 27.10 pmoles/mg tissue wet weight
  renal polyamine concentration, N^1-Acetylspermidine: 32.33 pmoles/mg tissue wet weight
  renal polyamine concentration, N^8-Acetylspermidine: 24.59 pmoles/mg tissue wet weight
  renal polyamine concentration, Putrescine: 95.60 pmoles/mg tissue wet weight
  renal polyamine concentration, Spermidine: 233.85 pmoles/mg tissue wet weight
  renal polyamine concentration, Spermine: 158.91 pmoles/mg tissue wet weight
[1]; Tg (transgenic) mice, 50 mg/kg
  hepatic concentration, α-Methylspermidine: 255.30 ± 60.90 pmoles/mg tissue wet weight
  hepatic concentration, α-Methylspermine: 168.36 pmoles/mg tissue wet weight
  hepatic polyamine concentration, N^1-Acetylspermidine: 265.90 pmoles/mg tissue wet weight
  hepatic polyamine concentration, Putrescine: 1057.25 pmoles/mg tissue wet weight
  hepatic polyamine concentration, Spermidine: 196.67 pmoles/mg tissue wet weight
  hepatic polyamine concentration, Spermine: 38.02 pmoles/mg tissue wet weight
  pancreatic concentration, α-Methylspermine: 185.90 ± 20.82 pmoles/mg tissue wet weight
  pancreatic polyamine concentration, N^1-Acetylspermidine: 284.83 pmoles/mg tissue wet weight
  pancreatic polyamine concentration, Putrescine: 9027.03 pmoles/mg tissue wet weight
  pancreatic polyamine concentration, Spermidine: 3570.11 pmoles/mg tissue wet weight
  pancreatic polyamine concentration, Spermine: 70.53 pmoles/mg tissue wet weight
  renal concentration, α-Methylspermine: 319.33 ± 19.28 pmoles/mg tissue wet weight
  renal polyamine concentration, N^1-Acetylspermidine: 44.20 pmoles/mg tissue wet weight
  renal polyamine concentration, N^8-Acetylspermidine: 24.48 pmoles/mg tissue wet weight
  renal polyamine concentration, Putrescine: 91.94 pmoles/mg tissue wet weight
  renal polyamine concentration, Spermidine: 155.85 pmoles/mg tissue wet weight
  renal polyamine concentration, Spermine: 205.04 pmoles/mg tissue wet weight
